From patent US20240150377A1, “MODULATORS OF CYSTIC FIBROSIS TRANSMEMBRANE CONDUCTANCE REGULATOR” (VERTEX PHARMACEUTICALS INCORPORATED, priority 2020, published 2024)

Molecular target: T1, CFTR (Homo sapiens, UniProt P13569, DEL508-508)
T1 construct: endogenous in cells; host or cells: primary human bronchial epithelial cells from CF subjects (F508del/MF-HBE), differentiated at air-liquid interface
Experiment: HBE2 assay: Ussing chamber assay of CFTR-mediated short-circuit currents
Assay type: cell-based
Settings: F508del/MF-HBE cells, with 44 nM potentiator, 18-24 hours, 20% human serum
Description: Ussing Chamber Assay of CFTR-Mediated Short-Circuit Currents
After four days the apical media was removed, and the cells were grown at an air liquid interface for >14 days prior to use.
To isolate the CFTR-mediated short-circuit (ISC) current, F508del/MF-HBE grown on Costar® Snapwell™ cell culture inserts were mounted in an Ussing chamber and the transepithelial ISC was measured under voltage-clamp recording conditions (Vhold=0 mV) at 37° C. […] The CFTR-mediated ISC (μA/cm^2) for each condition was determined from the peak forskolin response to the steady-state current following inhibition.
Identification of Corrector Compounds
The activity of the CFTR corrector compounds on the CFTR-mediated ISC was determined in Ussing chamber studies as described above.

T1 sequence (P13569 with tags, fused parts or gaps DEL508-508): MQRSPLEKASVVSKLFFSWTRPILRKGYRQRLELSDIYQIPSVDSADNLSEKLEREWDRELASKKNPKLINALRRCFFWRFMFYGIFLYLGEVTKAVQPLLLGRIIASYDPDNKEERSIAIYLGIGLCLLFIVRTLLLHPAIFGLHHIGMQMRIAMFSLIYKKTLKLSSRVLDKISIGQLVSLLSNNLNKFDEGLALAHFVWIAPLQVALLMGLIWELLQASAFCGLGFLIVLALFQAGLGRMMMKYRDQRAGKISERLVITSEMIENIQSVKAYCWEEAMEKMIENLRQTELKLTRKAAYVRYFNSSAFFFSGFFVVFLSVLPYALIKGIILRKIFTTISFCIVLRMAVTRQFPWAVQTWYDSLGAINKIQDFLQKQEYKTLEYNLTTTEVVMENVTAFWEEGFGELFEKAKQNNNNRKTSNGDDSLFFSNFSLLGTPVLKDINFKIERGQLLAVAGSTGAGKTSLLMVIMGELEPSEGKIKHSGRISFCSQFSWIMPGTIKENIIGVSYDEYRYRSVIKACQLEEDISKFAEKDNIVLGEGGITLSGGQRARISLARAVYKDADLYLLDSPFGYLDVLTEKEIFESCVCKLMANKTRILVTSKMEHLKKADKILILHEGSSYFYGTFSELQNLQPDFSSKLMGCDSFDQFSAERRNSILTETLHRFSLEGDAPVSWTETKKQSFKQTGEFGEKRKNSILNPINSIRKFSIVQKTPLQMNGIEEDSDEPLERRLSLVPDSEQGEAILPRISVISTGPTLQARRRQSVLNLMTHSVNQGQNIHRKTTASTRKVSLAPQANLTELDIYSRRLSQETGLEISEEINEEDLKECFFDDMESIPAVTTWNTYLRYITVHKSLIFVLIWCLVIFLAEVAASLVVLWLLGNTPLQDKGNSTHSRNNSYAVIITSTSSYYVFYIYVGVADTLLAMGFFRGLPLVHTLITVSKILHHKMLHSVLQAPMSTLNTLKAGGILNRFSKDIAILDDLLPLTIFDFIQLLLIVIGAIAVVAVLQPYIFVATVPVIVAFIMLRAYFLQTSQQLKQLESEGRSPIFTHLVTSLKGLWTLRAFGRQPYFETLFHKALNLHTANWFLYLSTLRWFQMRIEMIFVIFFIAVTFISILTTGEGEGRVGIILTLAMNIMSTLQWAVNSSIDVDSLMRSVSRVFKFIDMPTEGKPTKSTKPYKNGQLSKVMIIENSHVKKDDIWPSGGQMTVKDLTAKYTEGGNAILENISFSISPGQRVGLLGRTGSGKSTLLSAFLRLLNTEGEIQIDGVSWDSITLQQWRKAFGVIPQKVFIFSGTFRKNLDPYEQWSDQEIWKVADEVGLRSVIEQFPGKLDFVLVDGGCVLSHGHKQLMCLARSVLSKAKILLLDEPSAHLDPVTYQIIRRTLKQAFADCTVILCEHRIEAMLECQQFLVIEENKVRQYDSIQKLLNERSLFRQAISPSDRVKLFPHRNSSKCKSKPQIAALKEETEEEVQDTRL

| SMILES | HBE2 Activity at 3 μM (%) (3 μM) | further results |
| --- | --- | --- |
| Cc1cccc(C)c1-c1cc2nc(n1)NS(=O)(=O)c1cccc(c1)C(=O)N(Cc1cncc(N(C)C3CCC3)n1)[C@H](CC1CC(C)(C)C1)CO2 (stereo in doubt) [Compound 1340, 12-[[6-[cyclobutyl(methyl)amino]pyrazin-2-yl]methyl]-11-[(3,3-dimethylcyclobutyl)methyl]-6-(2,6-dimethylphenyl)-2,2-dioxo-9-oxa-2λ^6-thia-3,5,12,19-tetrazatricyclo[12.3.1.14,8]nonadeca-1(18),4(19),5,7,14,16-hexaen-13-one] |  | HBE2 Activity at 3 μM (%) (3 μM corrector): ++ (++ is 30-60%) |
| Cc1cccc(C)c1-c1cc2nc(n1)NS(=O)(=O)c1cccc(c1)C(=O)N(Cc1ccn([C@H](C)C3CCOCC3)n1)[C@H](CC(C)(C)C)CO2 (stereo in doubt) [Compound 1456] | +++ (+++ is >60+) |  |
| Cc1cccc(C)c1-c1cc2nc(n1)NS(=O)(=O)c1cccc(c1)C(=O)N(Cc1ncc(OC(C)C)cn1)[C@H](C(C)C1CC1)CO2 (stereo in doubt) [Compound 1557] | + (+ is <300)) |  |
| Cc1cccc(C)c1-c1cc2nc(n1)NS(=O)(=O)c1cccc(c1)C(=O)N(Cc1ncc(OC(C)C)cn1)[C@H]([C@H](C)C1CC1)CO2 (stereo in doubt) [Compound 1558] | +++ (+++ is >60+) |  |
| Cc1cccc(C)c1-c1cc2nc(n1)NS(=O)(=O)c1cccc(c1)C(=O)N(Cc1ncc(OC(C)C)cn1)[C@H]([C@@H](C)C1CC1)CO2 (stereo in doubt) [Compound 1559] | +++ (+++ is >60+) |  |
| Cc1cccc(C)c1-c1cc2nc(n1)NS(=O)(=O)c1cccc(c1)C(=O)N(Cc1ncc(OC(C)C)cn1)[C@H]([C@@H](C)C(C)C)CO2 (stereo in doubt) [Compound 1570] | + (+ is <300)) |  |
| Cc1cccc(C)c1-c1cc2nc(n1)NS(=O)(=O)c1cccc(c1)C(=O)N(Cc1ncc(OC(C)C)cn1)[C@H]([C@@H](C)C(C)C)CO2 (stereo in doubt) [Compound 1571] | + (+ is <300)) |  |
| Cc1cccc(C)c1-c1cc2nc(n1)NS(=O)(=O)c1cccc(c1)C(=O)N(Cc1ncc(OC(C)C)cn1)[C@H]([C@@H](C)C(C)C)CO2 (stereo in doubt) [Compound 1572] | +++ (+++ is >60+) |  |
| Cc1cccc(C)c1-c1cc2nc(n1)NS(=O)(=O)c1cccc(c1)C(=O)N(Cc1ncc(OC(C)C)cn1)[C@H]([C@@H](C)C(C)C)CO2 (stereo in doubt) [Compound 1573] | +++ (+++ is >60+) |  |
| Cc1cccc(C)c1-c1cc2nc(n1)NS(=O)(=O)c1cccc(c1)C(=O)N(Cc1cccc(N3CCC[C@@]3(C)CO)n1)[C@H](CC(C)(C)C)CO2 (stereo in doubt) [Compound 1585] | +++ (+++ is >60+) |  |
| CO[C@@H]1CC[C@@H]1N(C)c1cncc(CN2C(=O)c3cccc(c3)S(=O)(=O)Nc3nc(cc(-c4c(C)cccc4C)n3)OC[C@H]2CC(C)(C)C)n1 (stereo in doubt) [Compound 1607] | +++ (+++ is >60+) |  |
| CO[C@@H]1CC[C@@H]1N(C)c1cncc(CN2C(=O)c3cccc(c3)S(=O)(=O)Nc3nc(cc(-c4c(C)cccc4C)n3)OC[C@H]2CC(C)(C)C)n1 (stereo in doubt) [Compound 1610] |  | EC50: < 1000 nM; Emax (read-out: HBE2 Max activity (%)): > 60% |
| Cc1cccc(C)c1-c1cc2nc(n1)NS(=O)(=O)c1cccc(c1)C(=O)N(Cc1cncc(N3CCC4NC(=O)CC43)n1)[C@H](CC(C)(C)C)CO2 (stereo in doubt) [Compound 1621] | ++ (++ is 30-60%) |  |
| Cc1cccc(C)c1-c1cc2nc(n1)NS(=O)(=O)c1cccc(c1)C(=O)N(Cc1cncc(N3CCC4NC(=O)CC43)n1)[C@H](CC(C)(C)C)CO2 (stereo in doubt) [Compound 1622] | ++ (++ is 30-60%) |  |
| Cc1cccc(C)c1-c1cc2nc(n1)NS(=O)(=O)c1cccc(c1)C(=O)N(Cc1cncc(N3CC4OCC[C@@H]43)n1)[C@H](CC(C)(C)C)CO2 (stereo in doubt) [Compound 1628] | +++ (+++ is >60+) |  |
